Assay results taken from PubChem BioAssay AID256 (DTP/NCI, 2004).
Inconclusive results and toxic doses are left out. The calls were made as follows: active = survival T/C of 150% or more; inactive = T/C below 125% in these data.

Test system: CD2F1 mice, L1210 leukemia ip, survival T/C
Assay: NCI In Vivo Anticancer Drug Screen. Data for tumor model L1210 Leukemia (intraperitoneal) in CD2F1 (CDF1) mice
Conditions: higher = longer survival
Procedure, shortened: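 Ratio T/C, where T is the treated-group value and C the vehicle-dosed control value, from mice implanted with a transplantable tumor.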

[1] = endpoint: mean survival time, dose: 100.0 mg/kg/injection, schedule: Q01DX001 (ip), vehicle: saline with Tween-80
[2] = endpoint: mean survival time, dose: 200.0 mg/kg/injection, schedule: Q01DX001 (ip), vehicle: saline with Tween-80
[3] = endpoint: mean survival time, dose: 400.0 mg/kg/injection, schedule: Q01DX001 (ip), vehicle: saline with Tween-80
[4] = endpoint: mean survival time, dose: 100.0 mg/kg/injection, schedule: Q04DX003 (ip), vehicle: saline
[5] = endpoint: mean survival time, dose: 200.0 mg/kg/injection, schedule: Q04DX003 (ip), vehicle: saline
[6] = endpoint: mean survival time, dose: 400.0 mg/kg/injection, schedule: Q04DX003 (ip), vehicle: saline

Measured: T/C

O=S(=O)(c1ccc(Br)cc1)c1ccc(Br)cc1
inactive: [1] 112 % of control | [2] 102 % of control | [3] 97 % of control

COC(=O)C(N)CCCCNc1ccc2c(cc1=O)C(NC(C)=O)CCc1cc(OC)c(OC)c(OC)c1-2 (stereo not drawn)
inactive: endpoint: mean survival time, dose: 3.1 mg/kg/injection, schedule: Q03HX008 (ip), vehicle: saline 105 % of control | endpoint: mean survival time, dose: 3.1 mg/kg/injection, schedule: Q03HX016 (ip), vehicle: saline 91 % of control | endpoint: mean survival time, dose: 3.1 mg/kg/injection, schedule: Q03HX024 (ip), vehicle: saline 96 % of control | endpoint: mean survival time, dose: 6.3 mg/kg/injection, schedule: Q03HX008 (ip), vehicle: saline 92 % of control | endpoint: mean survival time, dose: 6.3 mg/kg/injection, schedule: Q03HX016 (ip), vehicle: saline 103 % of control | endpoint: mean survival time, dose: 6.3 mg/kg/injection, schedule: Q03HX024 (ip), vehicle: saline 102 % of control | endpoint: mean survival time, dose: 12.5 mg/kg/injection, schedule: Q01DX009 (ip), vehicle: saline 91 % of control | endpoint: mean survival time, dose: 12.5 mg/kg/injection, schedule: Q01DX009 (sc), vehicle: saline 88 % of control | endpoint: mean survival time, dose: 12.5 mg/kg/injection, schedule: Q03HX008 (ip), vehicle: saline 97 % of control | endpoint: mean survival time, dose: 12.5 mg/kg/injection, schedule: Q03HX016 (ip), vehicle: saline 97 % of control | endpoint: mean survival time, dose: 12.5 mg/kg/injection, schedule: Q03HX024 (ip), vehicle: saline 107 % of control | endpoint: mean survival time, dose: 25.0 mg/kg/injection, schedule: Q01DX001 (ip), vehicle: saline 102 % of control | endpoint: mean survival time, dose: 25.0 mg/kg/injection, schedule: Q01DX001 (oral), vehicle: saline 100 % of control | endpoint: mean survival time, dose: 25.0 mg/kg/injection, schedule: Q01DX001 (sc), vehicle: saline 88 % of control | endpoint: mean survival time, dose: 25.0 mg/kg/injection, schedule: Q01DX009 (ip), vehicle: saline 100 % of control | endpoint: mean survival time, dose: 25.0 mg/kg/injection, schedule: Q01DX009 (oral), vehicle: saline 96 % of control | endpoint: mean survival time, dose: 25.0 mg/kg/injection, schedule: Q01DX009 (sc), vehicle: saline 91 % of control | endpoint: mean survival time, dose: 25.0 mg/kg/injection, schedule: Q03HX008 (ip), vehicle: saline 105 % of control | endpoint: mean survival time, dose: 25.0 mg/kg/injection, schedule: Q03HX016 (ip), vehicle: saline 94 % of control | endpoint: mean survival time, dose: 25.0 mg/kg/injection, schedule: Q03HX024 (ip), vehicle: saline 108 % of control | endpoint: mean survival time, dose: 25.0 mg/kg/injection, schedule: Q04DX003 (ip), vehicle: saline 100 % of control | endpoint: mean survival time, dose: 25.0 mg/kg/injection, schedule: Q08DX002 (ip), vehicle: saline 91 % of control | endpoint: mean survival time, dose: 50.0 mg/kg/injection, schedule: Q01DX001 (ip), vehicle: saline 94 % of control | endpoint: mean survival time, dose: 50.0 mg/kg/injection, schedule: Q01DX001 (oral), vehicle: saline 94 % of control | endpoint: mean survival time, dose: 50.0 mg/kg/injection, schedule: Q01DX001 (sc), vehicle: saline 92 % of control | endpoint: mean survival time, dose: 50.0 mg/kg/injection, schedule: Q01DX009 (ip), vehicle: saline 103 % of control | endpoint: mean survival time, dose: 50.0 mg/kg/injection, schedule: Q01DX009 (oral), vehicle: saline 91 % of control | endpoint: mean survival time, dose: 50.0 mg/kg/injection, schedule: Q01DX009 (sc), vehicle: saline 91 % of control | endpoint: mean survival time, dose: 50.0 mg/kg/injection, schedule: Q03HX008 (ip), vehicle: saline 107 % of control | endpoint: mean survival time, dose: 50.0 mg/kg/injection, schedule: Q03HX016 (ip), vehicle: saline 97 % of control | endpoint: mean survival time, dose: 50.0 mg/kg/injection, schedule: Q03HX024 (ip), vehicle: saline 111 % of control | endpoint: mean survival time, dose: 50.0 mg/kg/injection, schedule: Q04DX003 (ip), vehicle: saline 92 % of control | endpoint: mean survival time, dose: 50.0 mg/kg/injection, schedule: Q08DX002 (ip), vehicle: saline 103 % of control | endpoint: mean survival time, dose: 53.0 mg/kg/injection, schedule: Q01DX005 (ip), vehicle: saline 108 % of control | endpoint: mean survival time, dose: 53.0 mg/kg/injection, schedule: Q01DX009 (ip), vehicle: saline 107 % of control | endpoint: mean survival time, dose: 53.0 mg/kg/injection, schedule: Q04DX003 (ip), vehicle: saline 87 % of control | endpoint: mean survival time, dose: 80.0 mg/kg/injection, schedule: Q01DX005 (ip), vehicle: saline 114 % of control | endpoint: mean survival time, dose: 80.0 mg/kg/injection, schedule: Q01DX009 (ip), vehicle: saline 110 % of control | endpoint: mean survival time, dose: 80.0 mg/kg/injection, schedule: Q04DX003 (ip), vehicle: saline 87 % of control | [1] 106 % of control | endpoint: mean survival time, dose: 100.0 mg/kg/injection, schedule: Q01DX001 (ip), vehicle: saline 88 % of control | endpoint: mean survival time, dose: 100.0 mg/kg/injection, schedule: Q01DX001 (oral), vehicle: saline 96 % of control | endpoint: mean survival time, dose: 100.0 mg/kg/injection, schedule: Q01DX001 (sc), vehicle: saline 92 % of control | endpoint: mean survival time, dose: 100.0 mg/kg/injection, schedule: Q01DX009 (ip), vehicle: saline 114 % of control | endpoint: mean survival time, dose: 100.0 mg/kg/injection, schedule: Q01DX009 (oral), vehicle: saline 91 % of control | endpoint: mean survival time, dose: 100.0 mg/kg/injection, schedule: Q01DX009 (sc), vehicle: saline 92 % of control | endpoint: mean survival time, dose: 100.0 mg/kg/injection, schedule: Q04DX002 (ip), vehicle: saline 108 % of control | [4] 91 % of control | endpoint: mean survival time, dose: 100.0 mg/kg/injection, schedule: Q08DX002 (ip), vehicle: saline 100 % of control | endpoint: mean survival time, dose: 120.0 mg/kg/injection, schedule: Q01DX005 (ip), vehicle: saline 118 % of control | endpoint: mean survival time, dose: 120.0 mg/kg/injection, schedule: Q01DX009 (ip), vehicle: saline 114 % of control | endpoint: mean survival time, dose: 120.0 mg/kg/injection, schedule: Q04DX003 (ip), vehicle: saline 98 % of control | endpoint: mean survival time, dose: 180.0 mg/kg/injection, schedule: Q01DX005 (ip), vehicle: saline 118 % of control | endpoint: mean survival time, dose: 180.0 mg/kg/injection, schedule: Q01DX009 (ip), vehicle: saline 105 % of control | endpoint: mean survival time, dose: 180.0 mg/kg/injection, schedule: Q04DX003 (ip), vehicle: saline 96 % of control | [2] 106 % of control | endpoint: mean survival time, dose: 200.0 mg/kg/injection, schedule: Q01DX001 (ip), vehicle: saline 97 % of control | endpoint: mean survival time, dose: 200.0 mg/kg/injection, schedule: Q01DX001 (oral), vehicle: saline 94 % of control | endpoint: mean survival time, dose: 200.0 mg/kg/injection, schedule: Q01DX001 (sc), vehicle: saline 97 % of control | endpoint: mean survival time, dose: 200.0 mg/kg/injection, schedule: Q01DX009 (ip), vehicle: saline 118 % of control | endpoint: mean survival time, dose: 200.0 mg/kg/injection, schedule: Q01DX009 (oral), vehicle: saline 96 % of control | endpoint: mean survival time, dose: 200.0 mg/kg/injection, schedule: Q01DX009 (sc), vehicle: saline 94 % of control | endpoint: mean survival time, dose: 200.0 mg/kg/injection, schedule: Q04DX002 (ip), vehicle: saline 104 % of control | [5] 103 % of control | endpoint: mean survival time, dose: 200.0 mg/kg/injection, schedule: Q08DX002 (ip), vehicle: saline 111 % of control | endpoint: mean survival time, dose: 270.0 mg/kg/injection, schedule: Q01DX005 (ip), vehicle: saline 90 % of control | endpoint: mean survival time, dose: 270.0 mg/kg/injection, schedule: Q04DX003 (ip), vehicle: saline 98 % of control | [3] 107 % of control | endpoint: mean survival time, dose: 400.0 mg/kg/injection, schedule: Q01DX001 (ip), vehicle: saline 108 % of control | endpoint: mean survival time, dose: 400.0 mg/kg/injection, schedule: Q01DX001 (oral), vehicle: saline 96 % of control | endpoint: mean survival time, dose: 400.0 mg/kg/injection, schedule: Q01DX001 (sc), vehicle: saline 100 % of control | [6] 113 % of control | endpoint: mean survival time, dose: 400.0 mg/kg/injection, schedule: Q08DX002 (ip), vehicle: saline 113 % of control | endpoint: mean survival time, dose: 800.0 mg/kg/injection, schedule: Q01DX001 (oral), vehicle: saline 94 % of control

COc1cn(C2OC(CO)C(O)C2O)c(=O)nc1N (stereo not drawn)
inactive: endpoint: median survival time, dose: 25.0 mg/kg/injection, schedule: Q01DX005 (ip), vehicle: saline 114 % of control | endpoint: median survival time, dose: 50.0 mg/kg/injection, schedule: Q01DX005 (ip), vehicle: saline 111 % of control | endpoint: median survival time, dose: 100.0 mg/kg/injection, schedule: Q01DX005 (ip), vehicle: saline 114 % of control

COC(=O)C(=O)c1ccccc1
inactive: [4] 96 % of control | [5] 102 % of control | [6] 103 % of control

CC(=O)ON(C(C)=O)c1ccc(C(N)=O)cc1
inactive: endpoint: median survival time, dose: 25.0 mg/kg/injection, schedule: Q01DX009 (ip), vehicle: saline with Tween-80 103 % of control | endpoint: median survival time, dose: 50.0 mg/kg/injection, schedule: Q01DX009 (ip), vehicle: saline with Tween-80 100 % of control | endpoint: median survival time, dose: 100.0 mg/kg/injection, schedule: Q01DX009 (ip), vehicle: saline with Tween-80 101 % of control | endpoint: median survival time, dose: 200.0 mg/kg/injection, schedule: Q01DX009 (ip), vehicle: saline with Tween-80 103 % of control | endpoint: median survival time, dose: 400.0 mg/kg/injection, schedule: Q01DX009 (ip), vehicle: saline with Tween-80 108 % of control
